Data: patent publication US12139520B2 (priority 2020, dated 2024)
Numbered stars: 1 amine (or outer) side, 2 acyl side, 3 side chain; on linkers, the order of the positions; unused ones are H or OH. Bridge positions count the residues as written; N and C are the ends. Square brackets hold non-standard residues; d marks the D form. Peptide text beside a SMILES is read from it. * marks the point of attachment. C20 diacid = O=C(O)CCCCCCCCCCCCCCCCCCC(=O)*; γGlu = O=C(O)[C@H](CCC(=O)[*:2])N[*:1]; Hyp = O=C(O)[C@@H]1C[C@@H](O)CN1

What was measured:
[1] = target: T1, hAMY3 receptor (Homo sapiens, UniProt O60896+P30988); test: cAMP assay for in vitro receptor activation, hAMY3-R; type: cell-based; conditions: cAMP assay, hAMY3 receptor; read-out: hAMY3R EC50
T1 sequence (P30988 25-474): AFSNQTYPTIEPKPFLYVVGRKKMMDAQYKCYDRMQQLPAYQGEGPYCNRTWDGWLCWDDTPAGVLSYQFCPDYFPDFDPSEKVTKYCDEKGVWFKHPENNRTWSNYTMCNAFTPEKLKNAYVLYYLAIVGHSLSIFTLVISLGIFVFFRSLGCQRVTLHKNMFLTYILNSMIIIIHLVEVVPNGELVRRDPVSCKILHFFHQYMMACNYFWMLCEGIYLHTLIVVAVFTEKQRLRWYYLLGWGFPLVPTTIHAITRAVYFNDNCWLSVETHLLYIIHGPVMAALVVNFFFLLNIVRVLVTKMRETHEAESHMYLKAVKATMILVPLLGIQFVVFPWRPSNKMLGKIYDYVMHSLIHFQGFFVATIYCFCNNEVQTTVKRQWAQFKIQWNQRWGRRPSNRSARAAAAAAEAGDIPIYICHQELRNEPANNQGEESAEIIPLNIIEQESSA
T1 sequence (O60896 24-148 partner): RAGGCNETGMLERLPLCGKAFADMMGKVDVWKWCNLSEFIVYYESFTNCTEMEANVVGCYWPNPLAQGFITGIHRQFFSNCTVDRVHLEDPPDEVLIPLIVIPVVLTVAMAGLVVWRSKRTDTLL
How it was run: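 Accumulated cAMP was detected by time-resolved FRET one hour after reagent addition. Beforehand, hAMY3-R-overexpressing monoclonal cells (2000/well, DPBS, 0.05% casein, 0.5 mM IBMX) received graded doses of compound for 30 min at room temperature; human amylin served as positive control.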

[2] = target: hAM1 receptor (Homo sapiens, UniProt O60895+Q16602); test: cAMP assay for in vitro receptor activation, hAM1-R; type: cell-based; conditions: cAMP assay, hAM1 receptor; read-out: hAM1R EC50
How it was run: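 Monoclonal stable hAM1-overexpressing cells, thawed from frozen stock; 8000 cells/well in DPBS + 0.05% casein + 0.5 mM IBMX; read-out cAMP.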

Sequence of hAM1 receptor (Q16602 23-461): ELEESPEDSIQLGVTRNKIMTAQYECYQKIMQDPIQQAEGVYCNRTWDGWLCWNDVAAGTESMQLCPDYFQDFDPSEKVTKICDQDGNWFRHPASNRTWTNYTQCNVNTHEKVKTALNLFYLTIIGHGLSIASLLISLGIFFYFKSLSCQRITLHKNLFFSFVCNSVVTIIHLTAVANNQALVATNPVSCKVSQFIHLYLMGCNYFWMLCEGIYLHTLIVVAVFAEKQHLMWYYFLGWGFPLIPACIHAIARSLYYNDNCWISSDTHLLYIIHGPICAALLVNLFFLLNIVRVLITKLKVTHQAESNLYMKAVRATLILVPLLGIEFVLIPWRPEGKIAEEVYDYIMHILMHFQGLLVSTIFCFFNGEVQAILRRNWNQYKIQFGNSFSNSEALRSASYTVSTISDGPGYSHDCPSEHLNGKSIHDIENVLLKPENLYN
Sequence of hAM1 receptor (O60895 43-175 partner): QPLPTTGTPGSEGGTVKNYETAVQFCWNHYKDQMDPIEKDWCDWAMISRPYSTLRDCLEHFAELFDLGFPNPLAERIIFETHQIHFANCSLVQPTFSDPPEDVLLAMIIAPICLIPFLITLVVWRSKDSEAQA

Row | Structure (SMILES) | EC50 [1] | EC50 [2]
1 | CC[C@H](C)[C@H](NC(=O)[C@H](CCC(N)=O)NC(=O)[C@H](Cc1c[nH]cn1)NC(=O)[C@H](C)NC(=O)[C@H](CC(C)C)NC(=O)[C@H](CCCNC(=N)N)NC(=O)[C@H](CCC(N)=O)NC(=O)[C@@H](NC(=O)[C@@H](NC(=O)[C@@H]1CSSC[C@H](NC(=O)[C@H](CCCCN)NC(=O)CC[C@H](NC(=O)CCCCCCCCCCCCCCCCCCC(=O)O)C(=O)O)C(=O)N[C@@H](CC(N)=O)C(=O)N[C@@H]([C@@H](C)O)C(=O)N[C@@H](C)C(=O)N[C@@H]([C@@H](C)O)C(=O)N1)[C@@H](C)O)C(C)C)C(=O)N[C@@H](C)C(=O)N[C@@H](CCC(N)=O)C(=O)N[C@@H](Cc1ccccc1)C(=O)N[C@@H](C)C(=O)N[C@@H](CC(=O)O)C(=O)N[C@@H](CCCCN)C(=O)N[C@@H](CC(=O)O)C(=O)N[C@@H](CCCCN)C(=O)N[C@@H](CC(=O)O)C(=O)N[C@@H](CC(N)=O)C(=O)N[C@H](C(=O)N[C@@H](C)C(=O)N1CCC[C@H]1C(=O)N1CCC[C@H]1C(=O)N[C@H](C(=O)N[C@@H](CC(N)=O)C(=O)N[C@H](C(=O)NCC(=O)N[C@@H](CO)C(=O)N[C@@H](CC(N)=O)C(=O)NCC(=O)N1C[C@H](O)C[C@H]1C(N)=O)C(C)C)[C@@H](C)O)C(C)C [compound 105] ({C20 diacid-γGlu}-KCNTATCTVQRLAHQIAQFADKDKDNVAPPTNVGSNG[Hyp]-NH2; disulfide 2-7) | 0.018 nM | > 5000 nM
2 | CC[C@H](C)[C@H](NC(=O)[C@H](CCC(N)=O)NC(=O)[C@H](CCC(=O)O)NC(=O)[C@H](C)NC(=O)[C@H](CC(C)C)NC(=O)[C@H](CCCNC(=N)N)NC(=O)[C@H](CCC(N)=O)NC(=O)[C@@H](NC(=O)[C@@H](NC(=O)[C@@H]1CSSC[C@H](NC(=O)[C@H](CCCCN)NC(=O)CC[C@H](NC(=O)CCCCCCCCCCCCCCCCCCC(=O)O)C(=O)O)C(=O)N[C@@H](CC(N)=O)C(=O)N[C@@H]([C@@H](C)O)C(=O)N[C@@H](C)C(=O)N[C@@H]([C@@H](C)O)C(=O)N1)[C@@H](C)O)C(C)C)C(=O)N[C@@H](Cc1ccc(O)cc1)C(=O)N[C@@H](CCC(N)=O)C(=O)N[C@@H](Cc1ccccc1)C(=O)N[C@H](C(=O)N[C@@H](C)C(=O)N[C@@H](CCCCN)C(=O)N[C@@H](CC(=O)O)C(=O)N[C@@H](CCCCN)C(=O)N[C@@H](CC(=O)O)C(=O)N[C@@H](CC(N)=O)C(=O)N[C@H](C(=O)N[C@@H](C)C(=O)N1CCC[C@H]1C(=O)N1CCC[C@H]1C(=O)N[C@H](C(=O)N[C@@H](CC(N)=O)C(=O)N[C@H](C(=O)NCC(=O)N[C@@H](CO)C(=O)N[C@@H](CC(N)=O)C(=O)NCC(=O)N1C[C@H](O)C[C@H]1C(N)=O)C(C)C)[C@@H](C)O)C(C)C)[C@@H](C)O [compound 106] ({C20 diacid-γGlu}-KCNTATCTVQRLAEQIYQFTAKDKDNVAPPTNVGSNG[Hyp]-NH2; disulfide 2-7) | 0.018 nM | > 5000 nM
3 | CC[C@H](C)[C@H](NC(=O)[C@H](CCC(N)=O)NC(=O)[C@H](CCC(=O)O)NC(=O)[C@H](C)NC(=O)[C@H](CC(C)C)NC(=O)[C@H](CCCNC(=N)N)NC(=O)[C@H](CCC(N)=O)NC(=O)[C@@H](NC(=O)[C@@H](NC(=O)[C@@H]1CSSC[C@H](NC(=O)[C@H](CCCCN)NC(=O)CC[C@H](NC(=O)CCCCCCCCCCCCCCCCCCC(=O)O)C(=O)O)C(=O)N[C@@H](CC(N)=O)C(=O)N[C@@H]([C@@H](C)O)C(=O)N[C@@H](C)C(=O)N[C@@H]([C@@H](C)O)C(=O)N1)[C@@H](C)O)C(C)C)C(=O)N[C@@H](Cc1ccc(O)cc1)C(=O)N[C@@H](CCC(N)=O)C(=O)N[C@@H](Cc1ccccc1)C(=O)N[C@H](C(=O)N[C@@H](CC(=O)O)C(=O)N[C@@H](CCCCN)C(=O)N[C@@H](CC(=O)O)C(=O)N[C@@H](CCCCN)C(=O)N[C@@H](C)C(=O)N[C@@H](CC(N)=O)C(=O)N[C@H](C(=O)N[C@@H](C)C(=O)N1CCC[C@H]1C(=O)N1CCC[C@H]1C(=O)N[C@H](C(=O)N[C@@H](CC(N)=O)C(=O)N[C@H](C(=O)NCC(=O)N[C@@H](CO)C(=O)N[C@@H](CC(N)=O)C(=O)NCC(=O)N1C[C@H](O)C[C@H]1C(N)=O)C(C)C)[C@@H](C)O)C(C)C)[C@@H](C)O [compound 108] ({C20 diacid-γGlu}-KCNTATCTVQRLAEQIYQFTDKDKANVAPPTNVGSNG[Hyp]-NH2; disulfide 2-7) | 0.019 nM | > 5000 nM
